Data: patent publication US12371464B2, “Polypeptides and uses thereof” (MEDIMMUNE LIMITED, priority 2020, dated 2025)
Numbered stars: 1 amine (or outer) side, 2 acyl side, 3 side chain; on linkers, the order of the positions; unused ones are H or OH. Bridge positions count the residues as written; N and C are the ends. Square brackets hold non-standard residues; d marks the D form. Side chains are listed from the residue outwards. Peptide text beside a SMILES is read from it. * marks the point of attachment. C18 diacid = O=C(O)CCCCCCCCCCCCCCCCC(=O)*; γGlu = O=C(O)[C@H](CCC(=O)[*:2])N[*:1]; αMeF = C[C@](N)(Cc1ccccc1)C(=O)O; AEEA = NCCOCCOCC(=O)O; Aib = CC(C)(N)C(=O)O

Test: Thioflavin T fibrillation assay
Assay type: physicochemical
Conditions: for Time taken to detect increase in fluorescence intensity: 1 mg/mL in 25 mM sodium acetate buffer pH 4.0, 37° C., 6 days, orbital shaking, >144 h = no increase
Source text: Peptide aggregation that form fibrils is an indication of physical instability. Fibril formation in solution poses a significant risk for the stability of injectable peptide drug products. Thioflavin T (ThT) fibrillation assay is a useful tool to assess the aggregation kinetics of a peptide or protein under accelerated and stressed conditions that can be used to forecast the long-term viability of a compound in solution. ThT can selectively bind amyloid fibrils and the resultant complex emits strong fluorescence signal at 482 nm when excited at 450 nm (Anal Biochem. 1989 March; 177 (2): 244-9). Monitoring of the change in fluorescence signal is an established method to study the fibril forming potential of peptides and proteins. ThT (purchased from Sigma Aldrich) stock solution is prepared by dissolving the ThT powder in Milli-Q water and filtered to obtain a 0.25 mM solution. The concentration of the solution is measured at 412 nm using an extinction coefficient of 36 mM-1 cm-1. Test peptides were dissolved at 1 mg/mL in 25 mM sodium acetate buffer pH 4.0. 100 μL aliquot of peptide solution and 5 μL aliquot of ThT solution were placed in a clear bottom black fluorescence 96-well plate. 5 replicates of each test samples were placed in the same row of the plate. Buffer was placed in control wells for baseline correction. All empty wells were filled with water to prevent evaporation. The plate was sealed with aluminium seal and placed in fluorescence plate reader and incubated for 6 days at 37° C. with intermittent orbital shaking at 500 to 750 rpm. The fluorescence intensity was measured every 30 min using excitation at 444 nm and emission at 480 nm. The fibril forming potential of the test peptides was determined by measuring the average time taken to detect an increase in baseline corrected fluorescence intensity.

Row | Structure (SMILES) | Time taken to detect increase in fluorescence intensity | fibril-forming tendency on conjugating pramlintide to a lipid (as seen in Table 7)
1 | CC[C@H](C)[C@H](NC(=O)[C@@H]1CCCN1C(=O)CNC(=O)[C@H](Cc1ccccc1)NC(=O)[C@H](CC(N)=O)NC(=O)C(C)(C)NC(=O)[C@H](CO)NC(=O)[C@H](CO)NC(=O)[C@H](Cc1c[nH]cn1)NC(=O)[C@@H](NC(=O)[C@H](CC(C)C)NC(=O)[C@H](Cc1ccccc1)NC(=O)[C@H](CC(N)=O)NC(=O)[C@H](C)NC(=O)[C@H](CC(C)C)NC(=O)[C@H](CCCNC(=N)N)NC(=O)[C@H](CCC(N)=O)NC(=O)[C@@H](NC(=O)[C@H](C)NC(=O)[C@@H]1CSSC[C@H](NC(=O)[C@H](CCCCN)NC(=O)[C@@H](N)CCCCNC(=O)CC[C@H](NC(=O)CCCCCCCCCCCCCCCCC(=O)O)C(=O)O)C(=O)N[C@@H](CC(N)=O)C(=O)N[C@@H]([C@@H](C)O)C(=O)N[C@@H](C)C(=O)N[C@@H]([C@@H](C)O)C(=O)N1)[C@@H](C)O)C(C)C)C(=O)N[C@@H](CC(C)C)C(=O)N1CCC[C@H]1C(=O)N1CCC[C@H]1C(=O)N[C@H](C(=O)N[C@@H](Cc1c[nH]cn1)C(=O)N[C@H](C(=O)NCC(=O)N[C@@H](CO)C(=O)N[C@@H](CC(N)=O)C(=O)N[C@H](C(=O)N[C@@H](Cc1ccc(O)cc1)C(N)=O)[C@@H](C)O)C(C)C)[C@@H](C)O [Peptide 40, K(γE-C18diacid)K[CNTATC]ATQRLANFLVHSS(Aib)NFGPILPPTHVGSNTY-amide] (H-K([γGlu-C18 diacid])KCNTATCATQRLANFLVHSS[Aib]NFGPILPPTHVGSNTY-NH2; disulfide 3-8; N-terminus assumed) | >144 h | –
2 | CC[C@H](C)[C@H](NC(=O)[C@@H]1CCCN1C(=O)CNC(=O)[C@H](Cc1ccccc1)NC(=O)[C@H](CC(N)=O)NC(=O)[C@H](CC(N)=O)NC(=O)[C@H](CO)NC(=O)[C@H](CO)NC(=O)[C@H](Cc1c[nH]cn1)NC(=O)[C@@H](NC(=O)[C@H](CC(C)C)NC(=O)[C@H](Cc1ccccc1)NC(=O)[C@H](CC(N)=O)NC(=O)[C@H](C)NC(=O)[C@H](CC(C)C)NC(=O)[C@H](CCCNC(=N)N)NC(=O)[C@H](CCC(N)=O)NC(=O)[C@@H](NC(=O)[C@H](C)NC(=O)[C@@H]1CSSC[C@H](NC(=O)[C@@H](N)CCCCNC(=O)CC[C@H](NC(=O)CC[C@H](NC(=O)CCCCCCCCCCCCCCCCC(=O)O)C(=O)O)C(=O)O)C(=O)N[C@@H](CC(N)=O)C(=O)N[C@@H]([C@@H](C)O)C(=O)N[C@@H](C)C(=O)N[C@@H]([C@@H](C)O)C(=O)N1)[C@@H](C)O)C(C)C)C(=O)N[C@@H](CC(C)C)C(=O)N1CCC[C@H]1C(=O)N1CCC[C@H]1C(=O)N[C@H](C(=O)N[C@@H](CC(N)=O)C(=O)N[C@H](C(=O)NCC(=O)N[C@@H](CO)C(=O)N[C@@H](CC(N)=O)C(=O)N[C@H](C(=O)N[C@@H](Cc1ccc(O)cc1)C(N)=O)[C@@H](C)O)C(C)C)[C@@H](C)O [Peptide 5] (H-K([γGlu-γGlu-C18 diacid])CNTATCATQRLANFLVHSSNNFGPILPPTNVGSNTY-NH2; disulfide 2-7; N-terminus assumed) | 7 h | increases the fibril-forming tendency
3 | CC[C@H](C)[C@H](NC(=O)[C@@H]1CCCN1C(=O)CNC(=O)[C@](C)(Cc1ccccc1)NC(=O)[C@H](CC(N)=O)NC(=O)[C@H](CC(N)=O)NC(=O)[C@H](CO)NC(=O)[C@H](CO)NC(=O)[C@H](Cc1c[nH]cn1)NC(=O)[C@H](CCCNC(=N)N)NC(=O)[C@H](CC(C)C)NC(=O)[C@H](Cc1ccccc1)NC(=O)[C@H](CC(N)=O)NC(=O)[C@H](C)NC(=O)[C@H](CC(C)C)NC(=O)[C@H](CCCNC(=N)N)NC(=O)[C@H](CCC(N)=O)NC(=O)[C@@H](NC(=O)[C@H](C)NC(=O)[C@@H]1CSSC[C@H](NC(=O)[C@@H](N)CCCCNC(=O)COCCOCCNC(=O)COCCOCCNC(=O)CC[C@H](NC(=O)CCCCCCCCCCCCCCCCC(=O)O)C(=O)O)C(=O)N[C@@H](CC(N)=O)C(=O)N[C@@H]([C@@H](C)O)C(=O)N[C@@H](C)C(=O)N[C@@H]([C@@H](C)O)C(=O)N1)[C@@H](C)O)C(=O)N[C@@H](CC(C)C)C(=O)N1CCC[C@H]1C(=O)N1CCC[C@H]1C(=O)N[C@H](C(=O)N[C@@H](CCC(=O)O)C(=O)N[C@H](C(=O)NCC(=O)N[C@@H](CO)C(=O)N[C@@H](CC(N)=O)C(=O)N[C@H](C(=O)N[C@@H](Cc1ccc(O)cc1)C(N)=O)[C@@H](C)O)C(C)C)[C@@H](C)O [Peptide 17, K(O2Oc-O2Oc-γE-C18diacid)[CNTATC]ATQRLANFLRHSSNN(αMePhe)GPILPPTEVGSNTY-amide] (H-K([AEEA-AEEA-γGlu-C18 diacid])CNTATCATQRLANFLRHSSNN[αMeF]GPILPPTEVGSNTY-NH2; disulfide 2-7; N-terminus assumed) | >144 h | –
4 | CC[C@H](C)[C@H](NC(=O)[C@@H]1CCCN1C(=O)CNC(=O)[C@](C)(Cc1ccccc1)NC(=O)[C@H](CC(N)=O)NC(=O)[C@H](CC(N)=O)NC(=O)[C@H](CO)NC(=O)[C@H](CO)NC(=O)[C@H](Cc1c[nH]cn1)NC(=O)[C@H](CCCNC(=N)N)NC(=O)[C@H](CC(C)C)NC(=O)[C@H](Cc1ccccc1)NC(=O)[C@H](CCC(=O)O)NC(=O)[C@H](C)NC(=O)[C@H](CC(C)C)NC(=O)[C@H](CCCNC(=N)N)NC(=O)[C@H](CCC(N)=O)NC(=O)[C@@H](NC(=O)[C@H](C)NC(=O)[C@@H]1CSSC[C@H](NC(=O)[C@@H](N)CCCCNC(=O)CC[C@H](NC(=O)CC[C@H](NC(=O)CCCCCCCCCCCCCCCCC(=O)O)C(=O)O)C(=O)O)C(=O)N[C@@H](CC(N)=O)C(=O)N[C@@H]([C@@H](C)O)C(=O)N[C@@H](C)C(=O)N[C@@H]([C@@H](C)O)C(=O)N1)[C@@H](C)O)C(=O)N[C@@H](CC(C)C)C(=O)N1CCC[C@H]1C(=O)N1CCC[C@H]1C(=O)N[C@H](C(=O)N[C@@H](CC(N)=O)C(=O)N[C@H](C(=O)NCC(=O)N[C@@H](CO)C(=O)N[C@@H](CC(N)=O)C(=O)N[C@H](C(=O)N[C@@H](Cc1ccc(O)cc1)C(N)=O)[C@@H](C)O)C(C)C)[C@@H](C)O [Peptide 11, K(γE-γE-C18diacid)[CNTATC]ATQRLAEFLRHSSNN(αMePhe)GPILPPTNVGSNTY-amide] (H-K([γGlu-γGlu-C18 diacid])CNTATCATQRLAEFLRHSSNN[αMeF]GPILPPTNVGSNTY-NH2; disulfide 2-7; N-terminus assumed) | >144 h | –

More lines, now with the values ahead:

Row | Time taken to detect increase in fluorescence intensity | fibril-forming tendency on conjugating pramlintide to a lipid (as seen in Table 7) | Structure (SMILES)
5 | <5 h | – | CC[C@H](C)[C@H](NC(=O)[C@@H]1CCCN1C(=O)CNC(=O)[C@H](Cc1ccccc1)NC(=O)[C@H](CC(N)=O)NC(=O)[C@H](CC(N)=O)NC(=O)[C@H](CO)NC(=O)[C@H](CO)NC(=O)[C@H](Cc1c[nH]cn1)NC(=O)[C@@H](NC(=O)[C@H](CC(C)C)NC(=O)[C@H](Cc1ccccc1)NC(=O)[C@H](CC(N)=O)NC(=O)[C@H](C)NC(=O)[C@H](CC(C)C)NC(=O)[C@H](CCCNC(=N)N)NC(=O)[C@H](CCC(N)=O)NC(=O)[C@@H](NC(=O)[C@H](C)NC(=O)[C@@H]1CSSC[C@H](NC(=O)[C@@H](N)CCCCNC(=O)CC[C@H](NC(=O)CCCCCCCCCCCCCCCCC(=O)O)C(=O)O)C(=O)N[C@@H](CC(N)=O)C(=O)N[C@@H]([C@@H](C)O)C(=O)N[C@@H](C)C(=O)N[C@@H]([C@@H](C)O)C(=O)N1)[C@@H](C)O)C(C)C)C(=O)N[C@@H](CC(C)C)C(=O)N1CCC[C@@H]1C(=O)N1CCC[C@H]1C(=O)N[C@H](C(=O)N[C@@H](CC(N)=O)C(=O)N[C@H](C(=O)NCC(=O)N[C@@H](CO)C(=O)N[C@@H](CC(N)=O)C(=O)N[C@H](C(=O)N[C@@H](Cc1ccc(O)cc1)C(N)=O)[C@@H](C)O)C(C)C)[C@@H](C)O [Peptide 104] (H-K([γGlu-C18 diacid])CNTATCATQRLANFLVHSSNNFGPIL[dP]PTNVGSNTY-NH2; disulfide 2-7; N-terminus assumed)
6 | >144 h | – | CC[C@H](C)[C@H](NC(=O)[C@@H]1CCCN1C(=O)CNC(=O)[C@H](Cc1ccccc1)NC(=O)[C@H](CC(N)=O)NC(=O)C(C)(C)NC(=O)[C@H](CO)NC(=O)[C@H](CO)NC(=O)[C@H](Cc1c[nH]cn1)NC(=O)[C@@H](NC(=O)[C@H](CC(C)C)NC(=O)[C@H](Cc1ccccc1)NC(=O)[C@H](CC(N)=O)NC(=O)[C@H](C)NC(=O)[C@H](CC(C)C)NC(=O)[C@H](CCCNC(=N)N)NC(=O)[C@H](CCC(N)=O)NC(=O)[C@@H](NC(=O)[C@H](C)NC(=O)[C@@H]1CSSC[C@H](NC(=O)[C@H](CCCCN)NC(=O)[C@@H](N)CCCCNC(=O)CC[C@H](NC(=O)CC[C@H](NC(=O)CCCCCCCCCCCCCCCCC(=O)O)C(=O)O)C(=O)O)C(=O)N[C@@H](CC(N)=O)C(=O)N[C@@H]([C@@H](C)O)C(=O)N[C@@H](C)C(=O)N[C@@H]([C@@H](C)O)C(=O)N1)[C@@H](C)O)C(C)C)C(=O)N[C@@H](CC(C)C)C(=O)N1CCC[C@H]1C(=O)N1CCC[C@H]1C(=O)N[C@H](C(=O)N[C@@H](CCCNC(=N)N)C(=O)N[C@H](C(=O)NCC(=O)N[C@@H](CO)C(=O)N[C@@H](CC(N)=O)C(=O)N[C@H](C(=O)N[C@@H](Cc1ccc(O)cc1)C(N)=O)[C@@H](C)O)C(C)C)[C@@H](C)O [Peptide 70, K(γE-γE-C18diacid)K[CNTATC]ATQRLANFLVHSS(Aib)NFGPILPPTRVGSNTY-amide] (H-K([γGlu-γGlu-C18 diacid])KCNTATCATQRLANFLVHSS[Aib]NFGPILPPTRVGSNTY-NH2; disulfide 3-8; N-terminus assumed)
